Holding throughout (format): physicochemical
A short description of data set [1]: Stability of the solid forms to phase transformation (overall finding). The conditions noted are these: variety of conditions.
Data set [2] can be described thus: DSC and thermomicroscopy of solid-state transformations. The procedure:
A Nikon POH-2 polarized light compound microscope with 10× objective is employed to view specimens mounted dry between a glass microscope slide and a no. 11/2 Cover slip. The samples are heated from ambient through 250° C. in a Mettler FP-80 microfurnace controlled by a Mettler FP-8 microprocessor. The heating rates may vary from 5-20° C./minute. The hot-stage experiments may be videotaped (Sony T120-HG and PM VHS tape) with a Hitachi VK-C350 Color Video Camera and a Panasonic AG-6200 Video Cassette Recorder.
Differential scanning calorimetry (DSC) is used to monitor enthalpy changes as a function of temperature during a linear temperature increase. A DuPont 910 DSC interfaced to a TA Instruments TA2100 computer may be used. The scan rate is 5° C./minute, and the instrument is operated with a 50-80 cc/min dry nitrogen purge. Samples are encapsulated in hermetically sealed aluminum sample pans with a pressure rating of about 2 bar. In some experiments, the lids of the pans are perforated to permit the passage of moisture and other volatile components.
Because calorimetric samples are occasionally affected by residual moisture, samples are sometimes studied with different initial water activities. Samples are weighed into tared DSC pans, and the open pans are permitted to equilibrate for several days in chambers of constant relative humidity at 25±1° C. These chambers are prepared from saturated salt solutions at 53% RH and 75% RH. At the end of the equilibration period, the chambers are opened, and the lids are placed over the samples to prevent re-equilibration with the ambient atmosphere. The samples are removed from the chambers, and the pans are quickly crimped closed.
Detailed description of FIG. 8. […] The heating rate is 5° C./minute. (a.) The sample is encapsulated in a standard DSC pan. (b.) The sample is encapsulated in a hermetically sealed DSC pan. The profiles are offset along the ordinate axis for comparison.
Detailed description of FIG. 10. […] The heating rate was 5° C./minute. (a.) The sample was equilibrated at 53% RH and encapsulated in a standard DSC pan. (b.)The sample was equilibrated at 53% RH and encapsulated in a hermetically sealed DSC pan. (c.) The sample was equilibrated at 75% RH and encapsulated in a hermetically sealed DSC pan. The profiles were offset along the ordinate axis for comparison.

A short description of data set [3]: Solubility of the quinolone, Forms I and III, in ethyl acetate. As to conditions: 20° C, two values given. The procedure:
Bulk drug samples are prepared by dissolving the material in mobile phase at a final concentration of approximately 0.25 to 0.5 mg/ml. For solubility experiments, 100 mcl aliquots of ethyl acetate solutions are withdrawn and placed directly into HPLC autosampler vials. A gentle stream of nitrogen gas is used to evaporate the solvent in the sample vials. The solids are reconstituted with 0.5 ml of HPLC mobile phase prior to analysis.
Solubilities are measured in ethyl acetate. Five to ten milligrams of bulk drug are placed into an amber autoinjector vial, and 3.0 ml of ethyl acetate are added. The vials are capped and shaken for intervals up to 24 hours at room temperature using a Burrell model BB wrist-action shaker. Aliquots are withdrawn from the supernate after centrifugation. The final sample is taken from a quiescent solution which had not been shaken since the 24 hour timepoint.
The solubilities of Forms I and III were determined in ethyl acetate at room temperature; the solubility data for each form was gathered simultaneously, to assure that each form's solubility was measured under identical conditions. Ethyl acetate was employed as an aprotic solvent yielding fairly low equilibrium solubilities of the quinolone; ethyl acetate has been used to evaluate the difference in free energy of polymorphic forms of an antinociceptive drug, as described by K. Raghavan et al., J. Pharm. Biomed. Anal. Vol.12 (6), pp. 777-785 (1994). Under the assumption that the solubilities in TABLE S are consistent with the dilute solution limit, we can use the following expression to calculate the difference in Gibbs free energy between Form I and Form III: [formula] where "sx " is the solubility of Form x in a sufficiently dilute solution, R is the gas constant, and T is the absolute temperature. Using the data in Table 1, we find that the Gibbs free energy of Form III is lower than that of Form I by 7.7±0.2 kJ/mole.

Data set [4] is described as follows: Isothermal calorimetry (ITC) of Form I to Form III conversion. As to conditions: after ITC at 40° C. On the procedure:
Isothermal calorimetry (ITC) experiments are conducted using a model 2277 microcalorimeter made by ThermoMetric (see Suurkuusk, J.:Wadso, I. Chem. Scr. (1982) Vol. 20 pp. 155-163). The Digitam® version 2.1 software from Thermometric is used to display the data and to integrate the total heat obtained from the samples. Heat flow is monitored as a function of time at 60° C. and at 40° C. Both glass and stainless steel ampules are used to hold the solid samples and the reference material (quartz sand). Samples are thermally equilibrated for a period ranging from 15 minutes (glass ampules) to 1 hour (stainless steel ampules) prior to recording thermal data. The weight of the samples ranged from about 75 to 300 mg. Samples in glass ampules are equilibrated via the isopiestic method at 53% or 75% RH in chambers containing saturated solutions of sodium chloride or calcium nitrate tetrahydrate. The ampules are capped immediately after removing the samples. Other samples are equilibrated using "microhygrostats" containing small quantities of saturated salt solutions which are sealed within the ampules. This arrangement provided for nearly constant relative humidity as the crystal conversion proceeded.
We therefore studied the transformation of samples after equilibration at […] and 75% RH. […] HPLC analysis of the reaction product confirmed that the 60° C. ITC profiles contained negligible contributions from chemical decomposition.
A detailed explanation of FIG. 9 follows. […] Trace (a) is recorded from a sample of Form I equilibrated to 75% relative humidity before sealing the sample container and exposing it to the 60° C. conditions in the calorimeter. Trace (b) is recorded for a sample of Form I at 60° C., but a 75% relative humidity "microhygrostat" is placed in the sample container just prior to recording the data. The conversion is delayed from that of trace (a) due to the fact that the water must be transported from the microhygrostat to the Form I crystals during the experiment. Trace (c) is recorded for a sample of Form I at 60° C., but the sample was equilibrated at 53% relative humidity prior to sealing the sample container.
This trace results from placing a 75% relative humidity microhygrostat into the sample container just prior to recording the data. The sample is held at 40° C. in the calorimeter; the heat flow results as the Form I material converts to Form III.

Data set [5] can be described thus: Dynamic moisture sorption gravimetry (controlled atmosphere microbalance, 25° C). The procedure:
Dynamic Moisture Sorption Gravimetry
Dynamic moisture uptake is studied on the controlled atmosphere microbalance system at 25° C. About ten mg of sample are equilibrated on the balance for about 2 hours at 2.5% RH. The relative humidity surrounding the sample is increased in increments of 3% RH up to about 92% RH, at which point the RH is decremented in 3% steps to a final RH of about 2.5%. At each relative humidity, the sample is allowed to equilibrate until the mass is stable within 0.0005 mg over a ten minute period. The dry mass is assumed to correspond to the mass of the sample after the initial equilibration period. A controlled atmosphere microbalance is a balance system described by Bergren, M.S. Int. J. Pharm. (1994) Vol. 103, pp. 103-114.
Detailed description of FIG. 2. […] The ordinate represents the mass change relative to the lowest mass measurement. The abscissa is relative humidity. The circles represent points recorded after sequential increases in the relative humidity and the squares were recorded after decreases in the relative humidity. The horizontal line in the middle of the plot corresponds to the water content of the hypothetical monohydrate of the quinolone.
Detailed description of FIG. 6. […] The ordinate represents the mass change relative to the lowest mass measurement. The abscissa is relative humidity. The circles represent points recorded after sequential increases in the relative humidity and the squares were recorded after decreases in the relative humidity. The horizontal line in the middle of the plot corresponds to the water content of the hypothetical monohydrate of the quinolone.

Data set [6] is described as follows: Enthalpies of solution (solution calorimetry). The conditions noted are these: Form III grown directly from solution. On the procedure:
The enthalpies of solution are determined in 50 mL of 0.1 M HCl at 25.0±0.05° C. Samples (0.10-0.11 g ) are weighed in 2 ml spherical, soft glass ampules and dried overnight in an evacuated desiccator over P2 O5. The ampules are removed, capped, weighed, and flame sealed. The enthalpies of solution are measured on a Tronac model 458 isoperibol solution calorimeter. The calorimetric accuracy of this instrument is within 1% based on calibration with tris(hydroxymethyl)-aminomethane (TRIS) in 0.1 N HCl.

Converted amounts (≈) assume the structure as drawn. “And” between values parts separate entries of the source, which are not always exact repeats. Equal values may be shown once. “Also recorded” adds a separate entry of the source.

Regarding `CN[C@@H](C)[C@@H]1CCN(c2c(F)cc3c(=O)c(C(=O)O)cn(C4CC4)c3c2OC)C1` [Form II, [S-(R*,S*)]-1-cyclopropyl-6-fluoro-1,4-dihydro-8-methoxy-7-[3-[1-(methylamino)ethyl]-1-pyrrolidinyl]-4-oxo-3-quinolinecarboxylic acid], the “Stability to transformation (in words)” value in data set [1] is given as “undergo phase transformations under a variety of conditions”. Besides, the “Temperature of Form II to Form III transformation” value in data set [2] (melt/recrystallization) is 166-171 °C.
On to `CN[C@@H](C)[C@@H]1CCN(c2c(F)cc3c(=O)c(C(=O)O)cn(C4CC4)c3c2OC)C1` [Form MS, [S-(R*,S*)]-1-cyclopropyl-6-fluoro-1,4-dihydro-8-methoxy-7-[3-[1-(methylamino)ethyl]-1-pyrrolidinyl]-4-oxo-3-quinolinecarboxylic acid], for which the figures for the “Stability to transformation (in words)” value in data set [1] and in data set [1] (listed as methanolate) were “undergo phase transformations under a variety of conditions” and “desolvates to yield Form I under such mild conditions that solvent is not normally retained in the product crystals”, respectively.
Regarding `CN[C@@H](C)[C@@H]1CCN(c2c(F)cc3c(=O)c(C(=O)O)cn(C4CC4)c3c2OC)C1` [Form III, [S-(R*,S*)]-1-cyclopropyl-6-fluoro-1,4-dihydro-8-methoxy-7-[3-[1-(methylamino)ethyl]-1-pyrrolidinyl]-4-oxo-3-quinolinecarboxylic acid], the “Solubility, concentration” value is 60 µg/mL and 90 µg/mL in data set [3] (1 hour, 60 min); 110 µg/mL (≈ 273 µM) in data set [3] (2 hours, 120 min); 120 µg/mL (≈ 297 µM) in data set [3] (4.5 hours, 270 min); 140 µg/mL (≈ 347 µM) in data set [3] (18 hours, 1080 min); 150 µg/mL (≈ 372 µM) in data set [3] (24 hours, 1440 min); 140 µg/mL (≈ 347 µM) in data set [3] (67.5 hours (not shaken after 24 hours), 4050 min). Besides, the “Moisture content of recovered Form III crystals” value in data set [4] amounted to 0.61%. In addition, the “Stability to transformation (in words)” value in data set [1] is listed as “stable to transformation”. The “Moisture sorption behaviour (in words)” value in data set [5] (25° C, sorption/desorption) was “sorbs less moisture than Form I at all relative humidities; also recorded: very little hysteresis between the sorption and desorption profiles, and the sample exhibited no evidence of recrystallization and/or hydrate Formation”. In addition, the Moisture adsorbed entry in data set [5] (throughout the entire RH range) was “less than 0.5%”. Also, in data set [2] (DSC), the Enthalpy of fusion result was “approximately 150 J/g”. In addition, the “Enthalpy of Form III lower than Form I by” value in data set [6] is reported as “about 8.8 kJ/mole”.

The record behind these values is patent US5985893A, “Physically stable solid form of a fluoroquinolone” (Pharmacia & Upjohn Company, priority 1996, dated 1999).
